The target of this assay is Vasopressin V1a receptor (Homo sapiens, UniProt P37288). Nature of the assay: Pharmacological Assay: The human V1a receptor was cloned by RT-PCR from total human liver RNA. The coding sequence was subcloned in an expression vector after sequencing to confirm the identity of the amplified sequence. […] Cell membranes were prepared from HEK293 cells transiently transfected with the expression vector and grown in 20 liter fermenters with the following protocol. 50 g of cells are re-suspended in 30 ml freshly prepared ice cold Lysis buffer ([…] HEPES. 1 mM EDTA, 10 mM MgCl adjusted to pH=7.4+complete cocktail of protease inhibitor (Roche Diagnostics)). Homogenized with Polytron for 1 min and sonicated on ice for 2×2 minutes at 80% intensity (Vibracell sonicator). The preparation is centrifuged 20 min at 500 g at 4° C., the pellet is discarded and the supernatant centrifuged 1 hour at 43'000 g at 4° C. (19'000 rpm). The pellet is re-suspended in 12.5 ml Lysis buffer+12.5 ml Sucrose 20% and homogenized using a Polytron for 1-2 min. The protein concentration is determined by the Bradford method and aliquots are stored at −80° C. until use. For binding studies 60 mg Yttrium silicate SPA beads (Amersham) are mixed with an aliquot of membrane in binding buffer (50 mM Tris, 120 mM NaCl, 5 mM KCl, 2 mM CaCl, 10 mM MgCl) for 15 minutes with mixing. 50 μl of bead/membrane mixture is then added to each well of a 96 well plate, followed by […] of 4 nM 3H-Vasopressin (American Radiolabeled Chemicals). For total binding measurement 100 μl of binding buffer are added to the respective wells, for non-specific binding 100 μl of 8.4 mM cold vasopressin and for compound testing 100 μl of a serial dilution of each compound in 2% DMSO. The plate is incubated 1 h at room temperature, centrifuged 1 min at 1000 g and counted on a Packard Top-Count. Non-specific binding counts are subtracted from each well and data is normalized to the maximum specific binding set at 100%. To calculate an IC 50 the curve is fitted using a non-linear regression model (XLfit) and the K, is calculated using the Cheng-Prussoff equation.
Sequence of Vasopressin V1a receptor (P37288 whole entry): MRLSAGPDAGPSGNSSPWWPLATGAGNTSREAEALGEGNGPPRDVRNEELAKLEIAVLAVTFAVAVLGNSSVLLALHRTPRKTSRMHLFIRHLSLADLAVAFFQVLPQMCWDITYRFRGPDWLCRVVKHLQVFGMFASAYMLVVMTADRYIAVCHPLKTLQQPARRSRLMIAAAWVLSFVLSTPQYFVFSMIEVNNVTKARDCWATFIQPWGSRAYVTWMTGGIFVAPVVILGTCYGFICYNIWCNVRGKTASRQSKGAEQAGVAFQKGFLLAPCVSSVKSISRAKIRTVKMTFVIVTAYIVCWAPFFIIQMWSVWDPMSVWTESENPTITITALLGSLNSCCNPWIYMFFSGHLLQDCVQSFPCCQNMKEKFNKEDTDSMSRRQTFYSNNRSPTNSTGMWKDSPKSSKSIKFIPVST

On to `O=C1N=C(N2CCC3(CC2)OCc2ccccc23)OC12CCc1ccccc1C2` (centres undefined), for which the Ki (commonly the equilibrium dissociation constant of an inhibitor or competing ligand from its target) was 1 nM. As for `O=C1OC2(CCN(C3=NC(=O)C4(Cc5ccccc5C4)O3)CC2)c2cc(O)ccc21`, the figure is 0.794 nM; as for `Cc1cc2c(cn1)C1(CCN(C3=NC(=O)C4(Cc5ccccc5C4)O3)CC1)OC2`, 3.16 nM; as for `O=C1OC2(CCN(C3=NC(=O)C4(Cc5ccccc5C4)O3)CC2)c2ccccc21`, 1 nM. For `Cc1cc2c(cn1)C1(CCN(C3=NC(=O)C4(Cc5ccccc5C4)O3)CC1)OC2=O` the value was 15.8 nM. For `Cc1cc2c(cn1)C(=O)OC21CCN(C2=NC(=O)C3(Cc4ccccc4C3)O2)CC1` the value was 12.6 nM. On to `O=C1N=C(N2CCC3(CC2)OCc2ccccc23)OC12CCCc1ccccc12` (centres undefined), for which the Ki was 50.1 nM. `O=C1N=C(N2CCC3(CC2)OCc2ccccc23)OC12Cc1ccc(Cl)cc1C2` (centres undefined): the Ki is 1 nM. On to `Cc1cc2c(cn1)COC21CCN(C2=NC(=O)C3(Cc4ccccc4C3)O2)CC1`, for which the Ki is 10 nM.
